Assay results taken from ChEMBL document CHEMBL1201862, “PubChem BioAssay data set” (2004).
The source made the active and inactive calls.

What was measured:
SN12K1 = assay: cells; type: functional; settings: Homo sapiens
P388 = assay: cells; type: functional; settings: Mus musculus
P388/ADR = assay: cells; type: functional; settings: Mus musculus
[1] = target: T1, Probable nicotinate-nucleotide adenylyltransferase (Staphylococcus aureus (strain N315), UniProt P65502); type: functional, Staphylococcus aureus subsp. aureus N315; settings: read-out: IC50_Mean;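 on IC50 Mean: confirmatory dose-response retesting of NadD inhibitor hits first found in an ultra-high-throughput screen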
T1 sequence (P65502 whole entry): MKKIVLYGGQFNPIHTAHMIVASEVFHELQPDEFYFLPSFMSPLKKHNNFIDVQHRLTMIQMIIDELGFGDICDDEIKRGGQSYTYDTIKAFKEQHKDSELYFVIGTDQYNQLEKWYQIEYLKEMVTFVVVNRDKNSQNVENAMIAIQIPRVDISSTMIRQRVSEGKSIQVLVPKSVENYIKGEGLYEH

[2] = target: T1, Probable nicotinate-nucleotide adenylyltransferase; type: functional, Staphylococcus aureus subsp. aureus N315
[3] = target: T2, Small ubiquitin-related modifier 1 (Homo sapiens, UniProt P63165); assay: SUMO1 protein-protein binding blockers, potency – biochemical, FRET, dose response (AID 624383); type: functional; settings: read-out: IC50_Mean
T2 sequence (P63165 whole entry): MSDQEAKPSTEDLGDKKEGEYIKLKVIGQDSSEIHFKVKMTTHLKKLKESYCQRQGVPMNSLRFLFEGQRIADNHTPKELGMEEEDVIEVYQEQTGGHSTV

[4] = target: T2, Small ubiquitin-related modifier 1; assay: SUMO1 protein interaction blockers, potency – biochemical, fluorescence polarization, uHTS hits, dose response (AID 624382); type: functional; settings: read-out: IC50_Mean
[5] = off-target signal loss in HeLa-CEM21 co-culture – HeLa F-luc CTL cells, cherry-picked, counter-screen for HIV-1 Env fusion inhibitor project, dose response (AID 652040); type: functional, cell-based;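 further: potency for signal decrease marking cytotoxic or nonspecific inhibition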
[6] = HIV-1 AD8 envelope cell-cell fusion blockers – cherry-pick, dose response (AID 652062); type: functional, cell-based;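 further: luciferase signal from cell-cell fusion driven by HIV-1 clade B AD8 Env; potency is for inhibitors of fusion seen as a drop in luminescence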
Protein skinhead-1 = target: T3, Protein skinhead-1 (Caenorhabditis elegans, UniProt P34707); type: functional
T3 sequence (P34707 whole entry): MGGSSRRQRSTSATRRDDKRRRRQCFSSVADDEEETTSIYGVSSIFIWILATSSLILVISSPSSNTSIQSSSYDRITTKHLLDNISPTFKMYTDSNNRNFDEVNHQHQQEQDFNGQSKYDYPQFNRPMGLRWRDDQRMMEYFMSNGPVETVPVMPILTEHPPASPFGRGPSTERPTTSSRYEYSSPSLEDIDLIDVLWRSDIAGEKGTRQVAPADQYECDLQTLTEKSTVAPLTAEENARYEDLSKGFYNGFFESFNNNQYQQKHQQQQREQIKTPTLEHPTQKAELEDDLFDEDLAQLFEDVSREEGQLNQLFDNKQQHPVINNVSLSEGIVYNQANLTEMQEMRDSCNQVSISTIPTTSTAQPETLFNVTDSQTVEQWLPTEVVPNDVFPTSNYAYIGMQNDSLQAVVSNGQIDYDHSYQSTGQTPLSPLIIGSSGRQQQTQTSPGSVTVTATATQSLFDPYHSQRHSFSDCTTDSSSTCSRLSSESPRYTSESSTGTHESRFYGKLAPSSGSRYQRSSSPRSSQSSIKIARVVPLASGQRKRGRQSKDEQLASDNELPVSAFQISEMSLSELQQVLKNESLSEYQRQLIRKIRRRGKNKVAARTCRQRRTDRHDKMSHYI

Cytochrome P450 2C9 = Cytochrome P450 2C9 (Homo sapiens, UniProt P11712)
Chain of Cytochrome P450 2C9 (P11712 whole entry): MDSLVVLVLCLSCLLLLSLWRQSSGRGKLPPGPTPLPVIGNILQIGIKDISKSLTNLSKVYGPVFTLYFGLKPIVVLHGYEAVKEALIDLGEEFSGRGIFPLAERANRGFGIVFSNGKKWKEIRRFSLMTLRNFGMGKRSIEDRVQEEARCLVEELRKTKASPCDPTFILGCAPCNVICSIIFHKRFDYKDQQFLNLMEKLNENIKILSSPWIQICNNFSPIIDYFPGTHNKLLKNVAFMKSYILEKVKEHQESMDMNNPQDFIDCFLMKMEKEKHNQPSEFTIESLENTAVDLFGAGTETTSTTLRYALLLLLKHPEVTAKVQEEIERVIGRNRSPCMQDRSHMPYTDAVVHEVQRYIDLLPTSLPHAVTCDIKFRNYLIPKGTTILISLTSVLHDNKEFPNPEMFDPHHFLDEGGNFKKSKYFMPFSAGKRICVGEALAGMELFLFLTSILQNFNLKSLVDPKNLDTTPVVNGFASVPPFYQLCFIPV

Cytochrome P450 3A4 = Cytochrome P450 3A4 (Homo sapiens, UniProt P08684);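 further: CYP3A4 tested as one member of a cytochrome P450 panel screen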
Chain of Cytochrome P450 3A4 (P08684 whole entry): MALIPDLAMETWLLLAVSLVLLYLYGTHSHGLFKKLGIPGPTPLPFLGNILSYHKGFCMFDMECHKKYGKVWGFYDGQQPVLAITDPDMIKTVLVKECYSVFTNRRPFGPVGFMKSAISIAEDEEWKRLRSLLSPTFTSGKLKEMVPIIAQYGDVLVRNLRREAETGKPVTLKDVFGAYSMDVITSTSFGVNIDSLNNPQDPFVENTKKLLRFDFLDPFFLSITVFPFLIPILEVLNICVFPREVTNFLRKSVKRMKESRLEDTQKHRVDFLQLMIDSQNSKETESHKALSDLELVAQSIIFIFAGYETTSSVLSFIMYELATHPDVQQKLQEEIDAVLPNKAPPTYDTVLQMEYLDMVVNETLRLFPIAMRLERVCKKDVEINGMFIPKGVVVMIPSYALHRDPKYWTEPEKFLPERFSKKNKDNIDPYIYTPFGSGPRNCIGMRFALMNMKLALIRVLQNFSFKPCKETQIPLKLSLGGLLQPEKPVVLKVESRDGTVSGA

Cytochrome P450 2D6 = Cytochrome P450 2D6 (Homo sapiens, UniProt P10635);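 further: CYP2D6 member of a cytochrome P450 panel assay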
Chain of Cytochrome P450 2D6 (P10635 whole entry): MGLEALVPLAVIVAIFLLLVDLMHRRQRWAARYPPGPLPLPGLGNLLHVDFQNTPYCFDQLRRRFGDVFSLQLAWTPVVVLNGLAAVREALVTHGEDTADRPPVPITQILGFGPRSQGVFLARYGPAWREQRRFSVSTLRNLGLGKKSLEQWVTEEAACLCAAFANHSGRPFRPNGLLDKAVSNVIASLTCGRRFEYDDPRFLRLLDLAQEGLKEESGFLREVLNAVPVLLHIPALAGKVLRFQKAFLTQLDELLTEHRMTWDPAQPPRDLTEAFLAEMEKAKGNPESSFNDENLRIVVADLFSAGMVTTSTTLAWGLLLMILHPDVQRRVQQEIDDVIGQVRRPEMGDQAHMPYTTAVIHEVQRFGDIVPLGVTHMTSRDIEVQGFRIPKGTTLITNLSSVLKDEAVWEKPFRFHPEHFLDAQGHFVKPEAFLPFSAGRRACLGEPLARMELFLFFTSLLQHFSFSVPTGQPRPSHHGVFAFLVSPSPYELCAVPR

Cytochrome P450 1A2 = target: T4, Cytochrome P450 1A2 (Homo sapiens, UniProt P05177);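 further: PubChem cytochrome P450 panel assay, CYP1A2 panel member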
T4 sequence (P05177 whole entry): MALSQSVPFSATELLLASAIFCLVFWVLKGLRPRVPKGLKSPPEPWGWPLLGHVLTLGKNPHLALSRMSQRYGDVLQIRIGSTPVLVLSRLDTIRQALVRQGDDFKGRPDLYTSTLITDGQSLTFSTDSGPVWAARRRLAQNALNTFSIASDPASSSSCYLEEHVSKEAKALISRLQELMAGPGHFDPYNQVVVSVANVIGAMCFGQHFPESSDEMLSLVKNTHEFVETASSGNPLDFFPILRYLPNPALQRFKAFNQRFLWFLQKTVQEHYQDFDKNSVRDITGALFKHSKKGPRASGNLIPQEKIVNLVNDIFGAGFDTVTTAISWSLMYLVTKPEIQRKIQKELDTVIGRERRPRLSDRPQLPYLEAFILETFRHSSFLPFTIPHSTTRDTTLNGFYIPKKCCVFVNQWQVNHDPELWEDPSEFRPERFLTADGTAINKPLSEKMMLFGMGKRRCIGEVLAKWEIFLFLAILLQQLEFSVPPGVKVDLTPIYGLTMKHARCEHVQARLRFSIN

[7] = target: T5, Type-1 angiotensin II receptor (Homo sapiens, UniProt P30556); assay: antagonism of angiotensin II type 1 receptor – cell-based, uHTS hits, selectivity assay for APJ receptor antagonist project, dose response (AID 463214); type: functional;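 further: antagonist potency against angiotensin II stimulated AT1 response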
T5 sequence (P30556 whole entry): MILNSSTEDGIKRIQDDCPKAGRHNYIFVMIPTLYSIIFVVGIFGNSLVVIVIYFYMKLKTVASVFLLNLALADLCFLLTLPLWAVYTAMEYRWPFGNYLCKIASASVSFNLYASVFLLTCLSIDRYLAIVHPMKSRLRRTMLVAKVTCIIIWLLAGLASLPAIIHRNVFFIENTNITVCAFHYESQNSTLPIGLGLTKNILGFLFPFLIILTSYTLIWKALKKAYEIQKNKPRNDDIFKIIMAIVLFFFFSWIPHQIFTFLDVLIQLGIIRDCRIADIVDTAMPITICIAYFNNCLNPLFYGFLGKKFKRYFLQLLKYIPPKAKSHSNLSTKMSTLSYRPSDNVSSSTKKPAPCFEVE

Beta-galactosidase = Beta-galactosidase (Escherichia coli, UniProt Q8VNN2); assay: PubChem AID 485352; type: functional
Chain of Beta-galactosidase (Q8VNN2 whole entry): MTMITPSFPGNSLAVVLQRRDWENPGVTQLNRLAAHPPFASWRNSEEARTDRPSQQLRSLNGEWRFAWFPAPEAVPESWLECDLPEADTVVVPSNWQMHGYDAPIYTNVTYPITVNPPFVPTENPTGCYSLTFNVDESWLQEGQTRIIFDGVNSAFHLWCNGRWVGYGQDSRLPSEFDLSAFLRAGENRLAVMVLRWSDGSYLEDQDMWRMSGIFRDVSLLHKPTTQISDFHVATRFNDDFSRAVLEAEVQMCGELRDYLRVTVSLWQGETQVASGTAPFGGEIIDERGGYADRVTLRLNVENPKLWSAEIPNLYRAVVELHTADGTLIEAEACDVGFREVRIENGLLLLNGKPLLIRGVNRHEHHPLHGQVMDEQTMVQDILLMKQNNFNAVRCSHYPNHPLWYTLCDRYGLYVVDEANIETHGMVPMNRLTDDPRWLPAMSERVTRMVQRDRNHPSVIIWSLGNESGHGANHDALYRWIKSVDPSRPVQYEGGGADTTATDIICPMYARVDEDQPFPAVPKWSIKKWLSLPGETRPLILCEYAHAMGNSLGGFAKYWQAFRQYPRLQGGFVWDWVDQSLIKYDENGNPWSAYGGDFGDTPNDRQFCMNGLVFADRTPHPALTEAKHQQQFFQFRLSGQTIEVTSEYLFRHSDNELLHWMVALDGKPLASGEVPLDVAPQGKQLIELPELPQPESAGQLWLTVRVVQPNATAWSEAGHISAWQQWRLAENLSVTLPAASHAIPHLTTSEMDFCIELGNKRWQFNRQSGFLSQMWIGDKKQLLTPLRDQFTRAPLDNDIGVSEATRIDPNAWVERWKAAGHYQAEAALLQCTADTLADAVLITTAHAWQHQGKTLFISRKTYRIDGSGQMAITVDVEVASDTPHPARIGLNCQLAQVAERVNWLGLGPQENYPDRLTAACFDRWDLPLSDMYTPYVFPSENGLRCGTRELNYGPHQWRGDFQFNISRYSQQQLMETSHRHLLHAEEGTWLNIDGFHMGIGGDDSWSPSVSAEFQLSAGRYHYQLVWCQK

In the case of CS(=O)(=O)OCCCCOS(C)(=O)=O [BUSULFAN], the GI50 (SN12K1) is reported as 215 µM (inactive), the GI50 (P388) is reported as 117 µM (inactive) and the GI50 (P388/ADR) is reported as 109 µM (inactive).

With CC(=O)O[C@H]1C(=O)O[C@@H]2C[C@H]3C(C)=CC(=O)[C@@H](O)[C@]3(C)[C@H]3[C@@]4(O)OC[C@]32[C@@H]1[C@@H](C)[C@H]4O the GI50 (SN12K1) was 0.0223 µM (active), the GI50 (P388) was 0.133 µM (active) and the GI50 (P388/ADR) was 1.66 µM (inactive).

With C/C=C\C=C\C(=O)Nc1cccc(C2=NOC3(C2)C[C@@H](C(N)=O)N(C(=O)C(c2ccccc2)c2ccccc2)C3)c1 (stereo partly specified) the IC50 [1] was 22.8 µM (active) and the IC50 [2] was 11.9 µM (active).

In the case of O=c1[nH]c(=O)c2nc3c4ccccc4c4ccccc4c3nc2[nH]1, the IC50 [3] is reported as 2.56 µM (active) and the IC50 [4] is reported as > 66.6 µM (inactive).

In the case of COc1ccc(S(=O)(=O)n2ccc(-c3ccc(OCCN(C)c4ccccn4)cc3)n2)cc1, the AC50 [5] is reported as 1.81 µM (active), the AC50 [6] is reported as 6.63 µM (active) and the IC50 (Protein skinhead-1) is reported as > 100 µM (inactive).

In the case of COc1ccc(NS(=O)(=O)c2ccc(NC(=S)NC(=O)/C=C/c3ccccc3)cc2)nn1, the IC50 [1] is reported as 40.6 µM (active) and the IC50 [2] is reported as 6.28 µM (active).

For N#Cc1cccc(NC(=O)N2CC3(CCN(C(=O)Oc4ccccc4)CC3)C2)c1, the AC50 (Cytochrome P450 2C9) was 15.8 µM (inconclusive), the AC50 (Cytochrome P450 3A4) was “inconclusive” and the AC50 (Cytochrome P450 2D6) was 39.8 µM (inconclusive). The AC50 (Cytochrome P450 1A2) was 15.8 µM (inconclusive).

In the case of COc1cc(NS(=O)(=O)c2ccc(NC(=S)NC(=O)C3CCCC3)cc2)nc(OC)n1, the IC50 [7] is reported as > 40 µM (not active) and the EC50 (Beta-galactosidase) is reported as > 40 µM (inactive).

With O=C(CSc1nnc(SCc2ccccc2)s1)N/N=C/c1c[nH]c2ccccc12 the IC50 [3] was 10.4 µM (active) and the IC50 [4] was > 66.6 µM (inactive).

In the case of O=C1CCCCN1, the GI50 (SN12K1) is reported as > 1120 µM (inactive), the GI50 (P388) is reported as 764 µM (inactive) and the GI50 (P388/ADR) is reported as > 1120 µM (inactive).
